Read-outs that look alike come from different tables or passages of the source.
Key:
CaM [1] = target: T1, CaM (Bos taurus, UniProt P62157); experiment: Pull-down assay with immobilized protein and LSM libraries; type: binding, bovine; settings: H14 library; 1:2 stoichiometry assumed; read-out: Surface mapping KD (apparent)
T1 construct: made in house; host or cells: E. coli BL21 (DE3)
Summary of the method: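 His-tagged protein immobilized on Co-NTA resin, equilibrated 30 min at room temperature with LSM sublibraries (64 members, […]), equimolar protein to total probe. CaM buffer: 20 mM HEPES pH 7.4, 150 mM NaCl, 5 mM CaCl2. Bound fractions from HPLC-MS loss of unbound probe versus protein-free resin control; Kd derived.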

Gal-1 [2] = target: T2, Gal-1 (Homo sapiens, UniProt P09382); experiment: as above; type: binding; settings: H14 library; 1:1 binding assumed; read-out: Surface mapping KD (apparent)
T2 construct: made in house; host or cells: E. coli BL21(DE3)
Summary of the method: (§1)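 His-tagged protein immobilized on Co-NTA resin (64 µM) in 20 mM HEPES pH 7.4, 150 mM NaCl, equilibrated 30 min at room temperature with foldamer LSM sublibraries at equimolar total concentration. Unbound fractions quantified by HPLC-MS versus protein-free resin control; apparent KD assumes 1:1 binding.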

S100A4 [3] = target: T3, S100A4 (Homo sapiens, UniProt P26447); experiment: as above; type: binding; settings: for Kd: H14 library, 1:1 binding assumed, read-out: Surface mapping KD (apparent); for Affinity class of probe (high, medium, low) in pull-down: H14 probes selected for validation
T3 construct: made in house; host or cells: Escherichia coli BL21(DE3)
Summary of the method: (§2)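 Buffers were HEPES pH 7.4 with 150 mM NaCl, plus 1 mM TCEP and 1 mM CaCl2 (50 mM HEPES) for S100A4 and S100B, 1 mM TCEP for Gal-1, and no additive for RecQ-WH. Immobilized protein at 64 µM was equilibrated 30 min with the LSM sublibrary, and unbound probes were measured by LC-MS.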

S100B [4] = target: T4, S100B (Homo sapiens, UniProt P04271); experiment: as above; type: binding; settings: for Kd: H14 library, 1:1 binding assumed, read-out: Surface mapping KD (apparent); for Affinity class of probe (high, medium, low) in pull-down: H14 probes selected for validation
T4 construct: made in house; host or cells: Escherichia coli BL21(DE3)
T4 sequence (P04271 1-92): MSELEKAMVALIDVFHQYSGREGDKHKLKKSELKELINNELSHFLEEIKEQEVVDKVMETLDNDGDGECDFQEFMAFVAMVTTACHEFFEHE
Summary of the method: as §2

RecQ-WH [5] = target: T5, RecQ-WH (Escherichia coli, UniProt P15043); experiment: as above; parameters: species or system E. coli; settings: H14 library; 1:1 binding assumed; read-out: Surface mapping KD (apparent)
T5 construct: coding for residues 408– 523 of E. coli RecQ; made in house; host or cells: E. coli BL21(DE3)
Summary of the method: as §1

CaM [6] = target: T1, CaM; experiment: Competition pull-down with native ligand TRPV1-Ct15; type: binding, bovine; settings: H14 library; competitor peptide 200 µM; read-out: Surface mapping KD (apparent), competition
S100A4 [7] = target: T3, S100A4; experiment: Competition pull-down with native ligand NMIIA (1893–1923); type: binding; settings: H14 library; competitor peptide 200 µM; read-out: Surface mapping KD (apparent), competition
S100B [8] = target: T4, S100B; experiment: Competition pull-down with native ligand RSK1 (689–735); type: binding; settings: H14 library; competitor peptide 200 µM; read-out: Surface mapping KD (apparent), competition
RecQ-WH [9] = target: T5, RecQ-WH; experiment: Competition pull-down with native ligand SSB-Ct8; type: binding, E. coli; settings: H14 library; competitor peptide 200 µM; read-out: Surface mapping KD (apparent), competition
Gal-1 [10] = target: T2, Gal-1; experiment: Competition pull-down with lactose; type: binding; settings: H14 library; lactose 10 mM; read-out: Surface mapping KD (apparent), competition
Summary of the method: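 His6-tagged proteins immobilized on Co-NTA resin at 64 µM final with 64-member LSM foldamer sublibraries (1 M each, as printed) in pH 7.4 HEPES/NaCl buffers (Ca2+/TCEP per target), 30 min RT; competitor peptides 200 µM final, lactose 10 mM for Gal-1. Bound fractions from LC-MS loss vs protein-free resin; KD assuming 1:1 binding.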

S100B [11] = target: T4, S100B; parameters: method as in PMID 26527685; settings: native ligand used as competitor; cited from earlier work
S100A4 [12] = target: T3, S100A4; parameters: method as in PMID 26527685; settings: native ligand used as competitor; cited from earlier work
Gal-1 [13] = target: Gal-1; parameters: method as in PMID 15476813; settings: native ligand used as competitor; cited from earlier work

T2 sequence (P09382 whole entry): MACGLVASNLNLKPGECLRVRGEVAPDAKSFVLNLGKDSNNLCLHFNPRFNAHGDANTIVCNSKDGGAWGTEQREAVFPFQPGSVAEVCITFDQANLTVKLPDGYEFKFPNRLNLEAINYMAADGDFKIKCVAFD
T3 sequence (P26447 whole entry): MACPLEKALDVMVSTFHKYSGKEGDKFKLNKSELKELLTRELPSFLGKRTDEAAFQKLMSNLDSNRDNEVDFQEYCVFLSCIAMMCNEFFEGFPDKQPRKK
T5 sequence (P15043 408-523): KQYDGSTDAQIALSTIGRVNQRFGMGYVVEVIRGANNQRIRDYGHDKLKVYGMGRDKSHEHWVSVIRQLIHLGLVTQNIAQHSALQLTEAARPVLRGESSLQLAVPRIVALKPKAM

Compound | Kd (CaM [1]) [µM] | Kd (Gal-1 [2]) [µM] | Kd (S100A4 [3]) [µM] | Kd (S100B [4]) [µM] | Kd (RecQ-WH [5]) [µM] | Kd (CaM [6]) [µM] | Kd (S100A4 [7]) [µM] | Kd (S100B [8]) [µM] | Kd (RecQ-WH [9]) [µM] | Kd (Gal-1 [10]) [µM] | Kd (S100B [11]) [µM] | Affinity class of probe (high, medium, low) in pull-down (S100A4 [3]) | Affinity class of probe (high, medium, low) in pull-down (S100B [4]) | Kd (S100A4 [12]) [µM] | Kd (Gal-1 [13]) [µM]
CC[C@H](C)[C@@H](CC(=O)N[C@H]1CCCC[C@@H]1C(N)=O)NC(=O)[C@H]1CCCC[C@@H]1NC(=O)[C@H]1CCCC[C@@H]1NC(=O)C[C@H](CC(C)C)NC(=O)[C@H]1CCCC[C@@H]1N [H14 LI] | 16 | 24 | 2 | 19 | 160 | 280 | 101 | 147 | 355 | 50 |  |  |  |  | 
RSK1 (689–735): peptide motif of ribosomal S6 kinase 1, native ligand competitor for S100B (QDLQLVKGAMAATYSALNSSKPTPQLKPIESSILAQRRVRKLPSTTL; UniProt Q15418 689-735, looked up, fragment) |  |  |  |  |  |  |  |  |  |  | 1.8 |  |  |  | 
CC[C@H](C)[C@@H](CC(=O)N[C@H]1CCCC[C@@H]1C(N)=O)NC(=O)[C@H]1CCCC[C@@H]1NC(=O)[C@H]1CCCC[C@@H]1NC(=O)C[C@H](Cc1ccccc1)NC(=O)[C@H]1CCCC[C@@H]1N [H14 FI] | 0.6 | 102 | 9 | 21 | 79 | 121 | 280 | 202 | 266 | 164 |  |  |  |  | 
CC[C@H](C)[C@@H](CC(=O)N[C@H]1CCCC[C@@H]1C(=O)N[C@H]1CCCC[C@@H]1C(=O)N[C@H](CC(=O)N[C@H]1CCCC[C@@H]1C(N)=O)CC(C)C)NC(=O)[C@H]1CCCC[C@@H]1N [H14 IL] | 9 | 24 | 2 | 19 | 206 | 276 | 101 | 147 | 266 | 50 |  | high | high |  | 
CC[C@H](C)[C@@H](CC(=O)N[C@H]1CCCC[C@@H]1C(=O)N[C@H]1CCCC[C@@H]1C(=O)N[C@H](CC(=O)N[C@H]1CCCC[C@@H]1C(N)=O)Cc1c[nH]c2ccccc12)NC(=O)[C@H]1CCCC[C@@H]1N [H14 IW] | 0.4 | 38 | 8 | 21 | 195 | 88 | 244 | 67 | 315 | 65 |  |  |  |  | 
CC(C)C[C@@H](CC(=O)N[C@H]1CCCC[C@@H]1C(N)=O)NC(=O)[C@H]1CCCC[C@@H]1NC(=O)[C@H]1CCCC[C@@H]1NC(=O)C[C@H](CC(C)C)NC(=O)[C@H]1CCCC[C@@H]1N [H14 LL] | 16 | 17 | 1 | 28 | 206 | 276 | 117 | 147 | 253 | 32 |  |  |  |  | 
NMIIA (1893–1923): peptide motif of non-muscle myosin IIA, native ligand competitor for S100A4 |  |  |  |  |  |  |  |  |  |  |  |  |  | 0.007 ± 0.001 | 
CC[C@H](C)[C@@H](CC(=O)N[C@H]1CCCC[C@@H]1C(N)=O)NC(=O)[C@H]1CCCC[C@@H]1NC(=O)[C@H]1CCCC[C@@H]1NC(=O)C[C@@H](NC(=O)[C@H]1CCCC[C@@H]1N)[C@@H](C)CC [H14 II] | 9 | 24 | 2 | 19 | 160 | 280 | 101 | 147 | 364 | 50 |  |  |  |  | 
CC(C)C[C@@H](CC(=O)N[C@H]1CCCC[C@@H]1C(=O)N[C@H]1CCCC[C@@H]1C(=O)N[C@H](CC(=O)N[C@H]1CCCC[C@@H]1C(N)=O)Cc1c[nH]c2ccccc12)NC(=O)[C@H]1CCCC[C@@H]1N [H14 LW] | 0.4 | 38 | 8 | 21 | 195 | 88 | 244 | 67 | 315 | 65 |  |  |  |  | 
OC[C@H]1O[C@@H](O[C@H]2[C@H](O)[C@@H](O)C(O)O[C@@H]2CO)[C@H](O)[C@@H](O)[C@H]1O (mixture of isomers) [Lactose] |  |  |  |  |  |  |  |  |  |  |  |  |  |  | 409
NC(=O)[C@H]1CCCC[C@@H]1NC(=O)C[C@H](Cc1c[nH]c2ccccc12)NC(=O)[C@H]1CCCC[C@@H]1NC(=O)[C@H]1CCCC[C@@H]1NC(=O)C[C@H](Cc1ccccc1)NC(=O)[C@H]1CCCC[C@@H]1N [H14 FW] | 0.7 | 81 | 24 | 27 | 63 | 118 | 440 | 177 | 153 | 122 |  |  |  |  | 
CC(C)C[C@@H](CC(=O)N[C@H]1CCCC[C@@H]1C(N)=O)NC(=O)[C@H]1CCCC[C@@H]1NC(=O)[C@H]1CCCC[C@@H]1NC(=O)C[C@H](Cc1c[nH]c2ccccc12)NC(=O)[C@H]1CCCC[C@@H]1N [H14 WL] | 1 | 71 | 10 | 12 | 68 | 55 | 255 | 123 | 142 | 105 |  | high | high |  | 
CC[C@H](C)[C@@H](CC(=O)N[C@H]1CCCC[C@@H]1C(=O)N[C@H]1CCCC[C@@H]1C(=O)N[C@H](CC(=O)N[C@H]1CCCC[C@@H]1C(N)=O)Cc1ccccc1)NC(=O)[C@H]1CCCC[C@@H]1N [H14 IF] | 9 | 33 | 2 | 9 | 186 | 102 | 162 | 64 | 439 | 53 |  | high | high |  | 
NC(=O)[C@H]1CCCC[C@@H]1NC(=O)C[C@H](Cc1c[nH]c2ccccc12)NC(=O)[C@H]1CCCC[C@@H]1NC(=O)[C@H]1CCCC[C@@H]1NC(=O)C[C@H](Cc1ccc(O)cc1)NC(=O)[C@H]1CCCC[C@@H]1N [H14 YW] | 2 | 115 | 25 | 42 | 46 | 404 | 391 | 38 | 164 | 112 |  |  |  |  | 
CC(C)C[C@@H](CC(=O)N[C@H]1CCCC[C@@H]1C(N)=O)NC(=O)[C@H]1CCCC[C@@H]1NC(=O)[C@H]1CCCC[C@@H]1NC(=O)C[C@H](Cc1ccccc1)NC(=O)[C@H]1CCCC[C@@H]1N [H14 FL] | 0.6 | 102 | 9 | 21 | 79 | 121 | 280 | 202 | 266 | 164 |  |  |  |  | 
